20 compounds from ChEMBL document CHEMBL1127002, “Substituted pyrrolidin-2-one biphenyltetrazoles as angiotensin II antagonists” (Bioorg Med Chem Lett, 1993) can be followed below.

The species entered for one test is Oryctolagus cuniculus. Description: Tested for inhibitory activity against angiotensin II induced contraction in rabbit aortic rings. It counts as functional. Conditions: Aorta, read-out: pA2 (converted).
Test [1] deals with T1, Type-1 angiotensin II receptor (Bos taurus, UniProt P25104).
T1 sequence (P25104 whole entry): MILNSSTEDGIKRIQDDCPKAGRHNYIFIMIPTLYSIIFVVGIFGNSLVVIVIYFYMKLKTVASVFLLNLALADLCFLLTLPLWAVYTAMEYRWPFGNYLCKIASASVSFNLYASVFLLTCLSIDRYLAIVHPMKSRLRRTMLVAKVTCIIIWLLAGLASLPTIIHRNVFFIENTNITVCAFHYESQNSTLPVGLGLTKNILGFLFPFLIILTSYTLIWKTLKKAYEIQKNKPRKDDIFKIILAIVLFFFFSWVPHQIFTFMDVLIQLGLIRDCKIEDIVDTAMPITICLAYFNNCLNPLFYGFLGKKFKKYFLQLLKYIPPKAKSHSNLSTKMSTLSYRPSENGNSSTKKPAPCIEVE
The experiment in a line: Concentration that gives 50% inhibition for binding of 125-I-[Sar1, IIe8] angiotensin to Angiotensin II receptor, type 1 in bovine adrenal cortex membrane. It counts as cell membranes.

The subject of the next test is Rattus norvegicus. The experiment in a line: Tested for antihypertensive activity in spontaneously hypertensive rats (SHR) after oral administration; A - Compound shows antihypertensive activity. The format is functional, organism-based.

Active and inactive are the calls of the source. No cut-off for these calls is given here.

As for `CCOC(=O)/C=C1\C2C3C=CC(CC3)C2C(=O)N1Cc1ccc(-c2ccccc2-c2nn[nH]n2)cc1` (centres undefined), in the test listed under Oryctolagus cuniculus, the Kb is 6.31 nM.

As a reminder, the IC50 is the midpoint of a concentration-inhibition curve. Higher therefore signals weaker potency. Regarding `CCOC(=O)/C=C1\N(Cc2ccc(-c3ccccc3-c3nn[nH]n3)cc2)C(=O)CC12CCCC2`, the IC50 in test [1] came to 250 nM. For the same compound, the Kb in the test filed under Oryctolagus cuniculus was 3.16 nM.

With `CCOC(=O)/C=C1\C2C3CCC(C3)C2C(=O)N1Cc1ccc(-c2ccccc2-c2nn[nH]n2)cc1` (centres undefined), in the test listed under Oryctolagus cuniculus, the Kb was 1 nM.

`CCOC(=O)/C=C1\C2C3C=CC(CCC3)C2C(=O)N1Cc1ccc(-c2ccccc2-c2nn[nH]n2)cc1` (centres undefined): the Kb in the test listed under Oryctolagus cuniculus is 39.8 nM.

In the case of `CCOC(=O)/C=C1/C(C)CC(=O)N1Cc1ccc(-c2ccccc2-c2nn[nH]n2)cc1` (centres undefined), the IC50 in test [1] is 3100 nM. In addition, the Kb in the test listed under Oryctolagus cuniculus was 316 nM.

`CCOC(=O)/C=C1\N(Cc2ccc(-c3ccccc3-c3nnn[nH]3)cc2)C(=O)CC12CCCCC2` displayed an IC50 in test [1] of 140 nM. Also, in the test filed under Oryctolagus cuniculus, the Kb was 12.6 nM.

With `CCCCc1nc(Cl)c(CO)n1Cc1ccc(-c2ccccc2-c2nnn[nH]2)cc1` [LOSARTAN], in test [1], the IC50 was 425 nM. The Kb in the test filed under Oryctolagus cuniculus was 1.58 nM.

Take `CCOC(=O)/C=C1\C2C(C(=O)N1Cc1ccc(-c3ccccc3-c3nn[nH]n3)cc1)C1C=CC2(OC)CC1` (centres undefined): in the test listed under Oryctolagus cuniculus, the Kb was 5.01 nM.

Consider `CCOC(=O)/C=C1\C2C(C(=O)N1Cc1ccc(-c3ccccc3-c3nn[nH]n3)cc1)C1CCC2C1(c1ccccc1)c1ccccc1` (centres undefined), for which, in the test listed under Oryctolagus cuniculus, the Kb was greater than 1000 nM.

Regarding `CCOC(=O)/C=C1\C2CCCCC2C(=O)N1Cc1ccc(-c2ccccc2-c2nn[nH]n2)cc1` (centres undefined), the Kb in the test listed under Oryctolagus cuniculus is 3.98 nM.

As to `CCOC(=O)/C=C1\C2C(C(=O)N1Cc1ccc(-c3ccccc3-c3nn[nH]n3)cc1)C1CCC2C1(C)C` (centres undefined), in the test filed under Oryctolagus cuniculus, the Kb was 251 nM.

For `CCOC(=O)/C=C1\C2C3C=CC(C3)C2C(=O)N1Cc1ccc(-c2ccccc2-c2nn[nH]n2)cc1` (centres undefined), the Kb in the test listed under Oryctolagus cuniculus was 3.98 nM.

As to `CCOC(=O)/C=C1\N(Cc2ccc(-c3ccccc3-c3nn[nH]n3)cc2)C(=O)CC12CCCCCC2`, the Kb in the test listed under Oryctolagus cuniculus is 3.98 nM. Also, the result in the test with Rattus norvegicus was Active.

For the compound `CCOC(=O)/C=C1\C2CC=CCC2C(=O)N1Cc1ccc(-c2ccccc2-c2nn[nH]n2)cc1` (centres undefined), the Kb in the test listed under Oryctolagus cuniculus is 31.6 nM.

For the compound `CCOC(=O)/C=C1\N(Cc2ccc(-c3ccccc3-c3nn[nH]n3)cc2)C(=O)CC1(C)CC` (centres undefined), the IC50 in test [1] worked out at 60 nM. The Kb in the test filed under Oryctolagus cuniculus was 25.1 nM.

Take `CCOC(=O)/C=C1\C2C3CCC(CC3)C2C(=O)N1Cc1ccc(-c2ccccc2-c2nn[nH]n2)cc1` (centres undefined): in the test listed under Oryctolagus cuniculus, the Kb is 10 nM. For the same compound, in the test with Rattus norvegicus, the Activity entry was “A”.

As to `CCOC(=O)/C=C1\N(Cc2ccc(-c3ccccc3-c3nn[nH]n3)cc2)C(=O)CC1(CC)CC`, the half-inhibitory concentration (IC50) in test [1] came out at 100 nM. Also, in the test filed under Oryctolagus cuniculus, the Kb is 12.6 nM.

The compound `CCOC(=O)/C=C1\N(Cc2ccc(-c3ccccc3-c3nnn[nH]3)cc2)C(=O)CC12CCCCCC2` yielded an IC50 in test [1] of 60 nM.

For the compound `CCOC(=O)/C=C1\C2C3CCCC(CC3)C2C(=O)N1Cc1ccc(-c2ccccc2-c2nn[nH]n2)cc1` (centres undefined), in the test filed under Oryctolagus cuniculus, the Kb is 20 nM. Moreover, the Activity result in the test with Rattus norvegicus is given as “A”.

For `CCOC(=O)/C=C1\C2C3CCC(O3)C2C(=O)N1Cc1ccc(-c2ccccc2-c2nn[nH]n2)cc1` (centres undefined), the Kb in the test listed under Oryctolagus cuniculus is 3.98 nM.
